Data on 24 compounds can be found in patent US20100227859A1, “TRICYCLIC COMPOUNDS AS MATRIX METALLOPROTEINASE INHIBITORS” (priority 2007, published 2010).

SMILES strings stand for the structures. pIC50: −log10 of the molar value. Some results are limits rather than exact numbers.

The target of this experiment is purified human MMP-12 enzyme (Homo sapiens, UniProt P39900). The experiment is described as follows: MMP-12 FRET assay. The experiment is classed as biochemical. The note with it: substrate 20 μM, room temperature. Here is the method: Compounds according to the present teachings were tested in an MMP-12 FRET assay as follows. To each well of black polystyrene 96-well plate was added assay buffer (50 mM HEPES (pH 7.4), 100 mM NaCl, 5 mM CaCl2 and 0.005% Brij-35 (Polyoxyethyleneglycol dodecyl ether, Pierce cat#20150), purified human MMP-12 enzyme, and varied concentrations of test compounds (prepared by serial dilution of a stock solution in 100% DMSO). The plates were incubated at room temperature for 30 minutes. The enzymatic reactions were initiated by addition of a substrate, MCA-Pro-Leu-Gly-Leu-Dpa(DNP)-Ala-Arg, containing a fluorescent group (7-methoxycoumarin, MCA) and a 2,4-dinitrophenyl group (DNP), to a final concentration of 20 μM. The final DMSO concentration in the assay was 10%. The reaction was monitored for 30 minutes at room temperature and the initial rate of the cleavage reaction was determined using a fluorescence plate reader (λex: 325 nm, λem: 395 nm). Plots of the inhibitor concentration vs. the initial cleavage rate were fit to the following equation: y=Vmax*(1−(x^n/(K^n+x^n))), whereby x=inhibitor concentration, y=initial rate, Vmax=initial rate in the absence of inhibitor, n=slope factor, and K=IC50 for the inhibition curve.
purified human MMP-12 enzyme, sequence (P39900 106-470): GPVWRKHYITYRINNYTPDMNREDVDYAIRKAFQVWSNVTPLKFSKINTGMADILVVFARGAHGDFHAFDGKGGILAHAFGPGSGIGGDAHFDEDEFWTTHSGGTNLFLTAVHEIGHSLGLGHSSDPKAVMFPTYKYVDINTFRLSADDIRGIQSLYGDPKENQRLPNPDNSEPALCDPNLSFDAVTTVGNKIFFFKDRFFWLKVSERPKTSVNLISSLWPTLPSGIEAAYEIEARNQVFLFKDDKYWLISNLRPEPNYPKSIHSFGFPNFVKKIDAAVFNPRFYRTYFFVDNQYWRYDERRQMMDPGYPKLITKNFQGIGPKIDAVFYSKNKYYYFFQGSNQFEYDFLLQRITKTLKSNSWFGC
For the compound `Cc1onc(-c2ccccc2)c1-c1ccc2oc3cc(S(=O)(=O)N[C@H](C(=O)O)C(C)C)ccc3c2c1` [Compound 161, (S)-3-methyl-2-(8-(5-methyl-3-phenylisoxazol-4-yl)dibenzo[b,d]furan-3-sulfonamido)butanoic acid], the pIC50 (in general, the negative decadic logarithm of the IC50, by convention in mol/L) is 7.09.
The figure for `CC(C)(C)c1nc(-c2ccc3oc4cc(S(=O)(=O)N[C@@H](C(=O)O)c5ccccc5)ccc4c3c2)no1` [Compound 255, (R)-2-(8-(5-tert-butyl-1,2,4-oxadiazol-3-yl)dibenzo[b,d]furan-3-sulfonamido)-2-phenylacetic acid] is 7.68.
In the case of `CC(C)[C@H](NS(=O)(=O)c1ccc2c(c1)oc1cc(-c3sc(Cl)cc3Cl)ccc12)C(=O)O` [Compound 85, (S)-2-(7-(3,5-dichlorothiophen-2-yl)dibenzo[b,d]furan-3-sulfonamido)-3-methylbutanoic acid], the pIC50 is greater than 8.82.
The figure for `CC(C)[C@H](NS(=O)(=O)c1ccc2c(c1)sc1ccc(-c3cccnc3)cc12)C(=O)O` [Compound 11, (S)-3-methyl-2-(8-(pyridin-3-yl)dibenzo[b,d]thiophene-3-sulfonamido)butanoic acid] is 7.81; for `CC(C)[C@H](NS(=O)(=O)c1ccc2c(c1)sc1cc(-c3ccc(Cl)s3)ccc12)C(=O)O` [Compound 304, (S)-2-(7-(5-chlorothiophen-2-yl)dibenzo[b,d]thiophene-3-sulfonamido)-3-methylbutanoic acid] it is 8.82; for `CC(C)[C@H](NS(=O)(=O)c1ccc2c(c1)sc1ccc(-c3ccsc3)cc12)C(=O)O` [Compound 26, (S)-3-methyl-2-(8-(thiophen-3-yl)dibenzo[b,d]thiophene-3-sulfonamido)butanoic acid] it is 7.42.
For the compound `CCNC(=N)c1ccc2oc3cc(S(=O)(=O)N[C@H](C(=O)O)C(C)C)ccc3c2c1` [Compound 128, (S)-2-(8-(N-ethylcarbamimidoyl)dibenzo[b,d]furan-3-sulfonamido)-3-methylbutanoic acid], the pIC50 is 7.14.
As for `CC(C)[C@H](NS(=O)(=O)c1ccc2c(c1)sc1c(-c3ccsc3Cl)cccc12)C(=O)O` [Compound 51, (S)-2-(6-(2-chlorothiophen-3-yl)dibenzo[b,d]thiophene-3-sulfonamido)-3-methylbutanoic acid], the pIC50 was less than 6.00.
`CC(C)[C@H](NS(=O)(=O)c1ccc2c(c1)oc1ccc(-c3ccc(C(C)N(C)C)s3)cc12)C(=O)O` (stereo partly drawn) [Compound 50, (S)-2-(8-(5-(1-(dimethylamino)ethyl)thiophen-2-yl)dibenzo[b,d]furan-3-sulfonamido)-3-methylbutanoic acid] gave a pIC50 of 8.24.
For the compound `CC(C)[C@H](NS(=O)(=O)c1ccc2c(c1)oc1ccc(-c3ccc(C(=O)O)s3)cc12)C(=O)O` [Compound 112, (S)-5-(7-(N-(1-carboxy-2-methylpropyl)sulfamoyl)dibenzo[b,d]furan-2-yl)thiophene-2-carboxylic acid], the pIC50 is 7.28.
In turn, `CC(C)[C@H](NS(=O)(=O)c1ccc2c(c1)oc1ccc(-c3noc(-c4ccc(F)cc4)n3)cc12)C(=O)O` [Compound 272, (S)-2-(8-(5-(4-fluorophenyl)-1,2,4-oxadiazol-3-yl)dibenzo[b,d]furan-3-sulfonamido)-3-methylbutanoic acid] gave a pIC50 greater than 8.82.
Compound `CC(C)[C@H](NS(=O)(=O)c1ccc2c(c1)oc1cc(-c3noc(-c4ccc(F)cc4)n3)ccc12)C(=O)O` [Compound 188, (S)-2-(7-(5-(4-fluorophenyl)-1,2,4-oxadiazol-3-yl)dibenzo[b,d]furan-3-sulfonamido)-3-methylbutanoic acid] gave a pIC50 of 8.07.
`CC(C)[C@H](NS(=O)(=O)c1ccc2oc3cc(-c4ccc(C(C)(C)C)o4)ccc3c2c1)C(=O)O` [Compound 241, (S)-2-(7-(5-tert-butylfuran-2-yl)dibenzo[b,d]furan-2-sulfonamido)-3-methylbutanoic acid]: the pIC50 is 6.77.
The result for `Cc1nc(-c2ccccc2)sc1-c1ccc2oc3cc(S(=O)(=O)N[C@H](C(=O)O)C(C)C)ccc3c2c1` [Compound 163, (S)-3-methyl-2-(8-(4-methyl-2-phenylthiazol-5-yl)dibenzo[b,d]furan-3-sulfonamido)butanoic acid] reads 6.77; that for `CC(C)[C@H](NS(=O)(=O)c1ccc2c(c1)oc1ccc(-c3ccc(-c4nnn[nH]4)s3)cc12)C(=O)O` [Compound 207, (S)-2-(8-(5-(1H-tetrazol-5-yl)thiophen-2-yl)dibenzo[b,d]furan-3-sulfonamido)-3-methylbutanoic acid], 8.08.
As to `CC(C)[C@H](NS(=O)(=O)c1ccc2c(c1)oc1ccc(-c3ncc(Cn4cccn4)s3)cc12)C(=O)O` [Compound 214, (S)-2-(8-(5-((1H-pyrazol-1-yl)methyl)thiazol-2-yl)dibenzo[b,d]furan-3-sulfonamido)-3-methylbutanoic acid], the pIC50 was 8.43.
For the compound `CC(C)[C@@H](NS(=O)(=O)c1ccc2oc3cc(-c4cc5ccccc5o4)ccc3c2c1)C(=O)O` [Compound 119, (R)-2-(7-(benzofuran-2-yl)dibenzo[b,d]furan-2-sulfonamido)-3-methylbutanoic acid], the pIC50 is 8.08.
`Cc1nc(-c2ccc(C(F)(F)F)cc2)sc1-c1ccc2c(c1)oc1ccc(S(=O)(=O)N[C@@H](C(=O)O)C(C)C)cc12` [Compound 177, (R)-3-methyl-2-(7-(4-methyl-2-(4-(trifluoromethyl)phenyl)thiazol-5-yl)dibenzo[b,d]furan-2-sulfonamido)butanoic acid] gave a pIC50 of 6.13.
As to `Cc1n[nH]c(C)c1-c1ccc2oc3cc(S(=O)(=O)N[C@H](C(=O)O)C(C)C)ccc3c2c1` [Compound 19, (S)-2-(8-(3,5-dimethyl-1H-pyrazol-4-yl)dibenzo[b,d]furan-3-sulfonamido)-3-methylbutanoic acid], the pIC50 was 7.36.
Compound `CC(C)[C@H](NS(=O)(=O)c1ccc2c(c1)oc1cc(-c3sc(Cl)c(Cl)c3Cl)ccc12)C(=O)O` [Compound 86, (S)-3-methyl-2-(7-(3,4,5-trichlorothiophen-2-yl)dibenzo[b,d]furan-3-sulfonamido)butanoic acid] had a pIC50 greater than 8.82.
As for `C#Cc1ccc2oc3cc(S(=O)(=O)N[C@H](C(=O)O)C(C)C)ccc3c2c1` [Compound 303, (S)-2-(8-ethynyldibenzo[b,d]furan-3-sulfonamido)-3-methylbutanoic acid], the pIC50 was greater than 8.82.
For `CC(C)[C@@H](NS(=O)(=O)c1ccc2oc3cc(-c4cc5cc(F)ccc5[nH]4)ccc3c2c1)C(=O)O` [Compound 122, (R)-2-(7-(5-fluoro-1H-indol-2-yl)dibenzo[b,d]furan-2-sulfonamido)-3-methylbutanoic acid], the pIC50 is 8.16.
For the compound `Cc1nc(C)c(-c2ccc3c(c2)oc2ccc(S(=O)(=O)N[C@@H](C(=O)O)C(C)C)cc23)s1` [Compound 169, (R)-2-(7-(2,4-dimethylthiazol-5-yl)dibenzo[b,d]furan-2-sulfonamido)-3-methylbutanoic acid], the pIC50 is 7.96.
`CC(C)[C@H](NS(=O)(=O)c1ccc2c(c1)oc1cc(-c3cc4ccccc4o3)ccc12)C(=O)O` [Compound 143, (S)-2-(7-(benzofuran-2-yl)dibenzo[b,d]furan-3-sulfonamido)-3-methylbutanoic acid] gave a pIC50 of 8.96.
